According to patent US20210261512A1, “NOVEL COMPOUNDS” (INFLAZOME LIMITED, priority 2018, published 2021):

Biological target: NLRP3 (Homo sapiens, UniProt Q96P20)
Assay: THP-1 cells pyroptosis assay
Format: cell-based
Set-up: Seed THP-1 cells (25,000 cells/well) containing 1.0 μg/ml LPS; host or cells: THP-1
Conditions: LPS 1.0 μg/ml, nigericin 5 μM, resazurin readout, 10 μM top dose (Example 2: top dose of 30 μM)
Summary of the method: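 Pyroptosis induced by 5 μM nigericin (1 h) in LPS-primed (1 μg/ml) THP-1 cells, 25,000/well in serum-free RPMI, after 3 h compound pre-treatment (8 points, 10 μM top unless stated). Surviving cells measured with 100 μM resazurin, Ex 560/Em 590; IC50 via variable-slope 4-parameter regression.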

NLRP3, sequence (Q96P20 whole entry): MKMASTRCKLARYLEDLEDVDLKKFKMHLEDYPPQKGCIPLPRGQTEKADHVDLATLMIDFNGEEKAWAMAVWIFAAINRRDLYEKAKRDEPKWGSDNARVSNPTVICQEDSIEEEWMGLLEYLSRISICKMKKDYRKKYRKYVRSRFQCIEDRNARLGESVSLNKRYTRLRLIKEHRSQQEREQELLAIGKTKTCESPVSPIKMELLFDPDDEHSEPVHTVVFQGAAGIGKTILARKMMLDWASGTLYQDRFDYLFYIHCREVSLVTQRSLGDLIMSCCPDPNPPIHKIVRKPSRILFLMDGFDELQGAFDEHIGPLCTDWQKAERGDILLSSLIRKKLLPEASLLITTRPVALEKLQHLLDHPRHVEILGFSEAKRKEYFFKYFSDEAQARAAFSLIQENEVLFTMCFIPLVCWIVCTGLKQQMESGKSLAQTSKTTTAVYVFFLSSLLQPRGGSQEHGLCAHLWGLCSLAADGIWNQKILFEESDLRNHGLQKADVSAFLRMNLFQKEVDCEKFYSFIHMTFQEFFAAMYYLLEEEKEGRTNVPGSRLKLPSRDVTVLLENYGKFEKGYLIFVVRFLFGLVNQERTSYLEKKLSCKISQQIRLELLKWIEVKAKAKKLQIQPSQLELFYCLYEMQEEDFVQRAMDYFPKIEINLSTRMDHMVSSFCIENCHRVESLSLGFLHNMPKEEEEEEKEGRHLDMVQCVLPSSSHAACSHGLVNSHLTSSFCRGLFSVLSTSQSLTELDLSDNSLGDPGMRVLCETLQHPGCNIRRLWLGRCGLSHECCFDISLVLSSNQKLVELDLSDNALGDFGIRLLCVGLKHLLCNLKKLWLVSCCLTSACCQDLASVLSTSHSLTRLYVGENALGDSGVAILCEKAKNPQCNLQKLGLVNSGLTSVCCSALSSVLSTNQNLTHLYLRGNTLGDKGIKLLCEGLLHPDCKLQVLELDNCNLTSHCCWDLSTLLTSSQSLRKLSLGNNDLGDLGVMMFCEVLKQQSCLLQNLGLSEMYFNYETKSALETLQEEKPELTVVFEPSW

Row | Structure (SMILES) | IC50 [µM]
1 | O=S(=O)(c1nnc(Nc2c3c(cc4c2CCC4)CCC3)[nH]1)N1CCC(F)(F)CC1 [Example 297, 5-((4,4-difluoropiperidin-1-yl)sulfonyl)-N-(1,2,3,5,6,7-hexahydro-s-indacen-4-yl)-4H-1,2,4-triazol-3-amine] | ≤ 10
2 | O=S1(=O)CCN(S(=O)(=O)c2nnc(Nc3c4c(cc5c3CCC5)CCC4)[nH]2)CC1 [Example 298, 4-((5-((1,2,3,5,6,7-hexahydro-s-indacen-4-yl)amino)-4H-1,2,4-triazol-3-yl)sulfonyl)thiomorpholine 1,1-dioxide] | ≤ 10
3 | NC(=O)c1ccccc1S(=O)(=O)c1n[nH]c(Nc2c3c(cc4c2CCC4)CCC3)n1 [Example 311, 2-((5-((1,2,3,5,6,7-hexahydro-s-indacen-4-yl)amino)-1H-1,2,4-triazol-3-yl)sulfonyl)benzamide] | ≤ 5
4 | COc1cc(-c2c(C)cc3c(c2Nc2nnc(S(C)(=O)=O)[nH]2)CCC3)ccn1 [Example 312, N-(5-(2-methoxypyridin-4-yl)-6-methyl-2,3-dihydro-1H-inden-4-yl)-5-(methylsulfonyl)-4H-1,2,4-triazol-3-amine] | ≤ 5
5 | O=S(=O)(c1nnc(Nc2c3c(cc4c2CCC4)CCC3)[nH]1)N1CCCC2(CCOC2)C1 (stereo not shown) [Example 313, 5-(2-oxa-7-azaspiro[4.5]decan-7-ylsulfonyl)-N-(1,2,3,5,6,7-hexahydro-s-indacen-4-yl)-4H-1,2,4-triazol-3-amine] | ≤ 5
6 | O=S(=O)(c1nnc(Nc2c3c(cc4c2CCC4)CCC3)[nH]1)N1CCC2(CCOC2)C1 (stereo not shown) [Example 314, 5-(2-oxa-7-azaspiro[4.4]nonan-7-ylsulfonyl)-N-(1,2,3,5,6,7-hexahydro-s-indacen-4-yl)-4H-1,2,4-triazol-3-amine] | ≤ 5
7 | CC(C)(O)C1CCCN(S(=O)(=O)c2nnc(Nc3c4c(cc5c3CCC5)CCC4)[nH]2)C1 (stereo not shown) [Example 315, 2-(1-((5-((1,2,3,5,6,7-hexahydro-s-indacen-4-yl)amino)-4H-1,2,4-triazol-3-yl)sulfonyl)piperidin-3-yl)propan-2-ol] | ≤ 5
8 | Cc1cc2c(c(Nc3nnc(S(=O)(=O)N4CCC(N(C)C)CC4)[nH]3)c1-c1ccnc(OC3CCN(C)CC3)c1)CCC2 [Example 316, N,N-dimethyl-1-((5-((6-methyl-5-(2-((1-methylpiperidin-4-yl)oxy)pyridin-4-yl)-2,3-dihydro-1H-inden-4-yl)amino)-4H-1,2,4-triazol-3-yl)sulfonyl)piperidin-4-amine] | ≤ 5
9 | CN1CCC(Oc2cc(-c3ccc4c(c3Nc3nnc(S(=O)(=O)N5CCC(N(C)C)CC5)[nH]3)CCC4)ccn2)CC1 [Example 321, N,N-dimethyl-1-((5-((5-(2-((1-methylpiperidin-4-yl)oxy)pyridin-4-yl)-2,3-dihydro-1H-inden-4-yl)amino)-4H-1,2,4-triazol-3-yl)sulfonyl)piperidin-4-amine] | ≤ 5
10 | CS(=O)(=O)c1nnc(Nc2c3c(c(C#N)c4c2CCC4)CCC3)[nH]1 [Example 322, 8-((5-(methylsulfonyl)-4H-1,2,4-triazol-3-yl)amino)-1,2,3,5,6,7-hexahydro-s-indacene-4-carbonitrile] | ≤ 5
11 | N#Cc1c2c(c(Nc3nnc(S(=O)(=O)c4ccccc4)[nH]3)c3c1CCC3)CCC2 [Example 323, 8-((5-(phenylsulfonyl)-4H-1,2,4-triazol-3-yl)amino)-1,2,3,5,6,7-hexahydro-5-indacene-4-carbonitrile] | ≤ 5
12 | COc1cc(-c2ccc3c(c2Nc2nnc(S(=O)(=O)c4ccc(C(C)(C)O)cc4)[nH]2)CCC3)ccn1 [Example 324, 2-(4-((5-((5-(2-methoxypyridin-4-yl)-2,3-dihydro-1H-inden-4-yl)amino)-4H-1,2,4-triazol-3-yl)sulfonyl)phenyl)propan-2-ol] | ≤ 0.5
13 | NS(=O)(=O)c1cccc(S(=O)(=O)c2nnc(Nc3c4c(cc5c3CCC5)CCC4)[nH]2)c1 [Example 326, 3-((5-((1,2,3,5,6,7-hexahydro-s-indacen-4-yl)amino)-4H-1,2,4-triazol-3-yl)sulfonyl)benzenesulfonamide] | ≤ 5
14 | O=C1CC2(CN1)CN(S(=O)(=O)c1nnc(Nc3c4c(cc5c3CCC5)CCC4)[nH]1)C2 [Example 332, 2-((5-((1,2,3,5,6,7-hexahydro-s-indacen-4-yl)amino)-4H-1,2,4-triazol-3-yl)sulfonyl)-2,6-diazaspiro[3.4]octan-7-one] | ≤ 10
15 | O=S(=O)(c1nnc(Nc2c3c(cc4c2CCC4)CCC3)[nH]1)N1CCC2(COC2)C1 [Example 333, 5-(2-oxa-6-azaspiro[3.4]octan-6-ylsulfonyl)-N-(1,2,3,5,6,7-hexahydro-s-indacen-4-yl)-4H-1,2,4-triazol-3-amine] | ≤ 5
16 | CS(=O)(=O)c1nnc(Nc2c(-c3ccnc(Oc4ccccc4)c3)ccc3c2CCC3)[nH]1 [Example 340, 5-(methylsulfonyl)-N-(5-(2-phenoxypyridin-4-yl)-2,3-dihydro-1H-inden-4-yl)-4H-1,2,4-triazol-3-amine] | ≤ 5
17 | CS(=O)(=O)c1nnc(Nc2c(-c3ccnc(OC4CCOCC4)c3)ccc3c2CCC3)[nH]1 [Example 342, 5-(methylsulfonyl)-N-(5-(2-((tetrahydro-2H-pyran-4-yl)oxy)pyridin-4-yl)-2,3-dihydro-1H-inden-4-yl)-4H-1,2,4-triazol-3-amine] | ≤ 5
18 | O=S(=O)(c1ccn(C2CC2)n1)c1nnc(Nc2c3c(cc4c2CCC4)CCC3)[nH]1 [Example 354, 5-((1-cyclopropyl-1H-pyrazol-3-yl)sulfonyl)-N-(1,2,3,5,6,7-hexahydro-s-indacen-4-yl)-4H-1,2,4-triazol-3-amine] | ≤ 0.5
19 | CN(C)C1CCC(Oc2cc(-c3ccc4c(c3Nc3nnc(S(C)(=O)=O)[nH]3)CCC4)ccn2)CC1 (stereo not shown) [Example 356, N-(5-(2-((4-(dimethylamino)cyclohexyl)oxy)pyridin-4-yl)-2,3-dihydro-1H-inden-4-yl)-5-(methylsulfonyl)-4H-1,2,4-triazol-3-amine] | ≤ 5
20 | CS(=O)(=O)c1nnc(Nc2c(-c3ccnc(OC4CCNCC4)c3)ccc3c2CCC3)[nH]1 [Example 357, 5-(methylsulfonyl)-N-(5-(2-(piperidin-4-yloxy)pyridin-4-yl)-2,3-dihydro-1H-inden-4-yl)-4H-1,2,4-triazol-3-amine] | ≤ 10
21 | CN1CCC(COc2cc(-c3ccc4c(c3Nc3nnc(S(C)(=O)=O)[nH]3)CCC4)ccn2)C1 (stereo not shown) [Example 358, N-(5-(2-((1-methylpyrrolidin-3-yl)methoxy)pyridin-4-yl)-2,3-dihydro-1H-inden-4-yl)-5-(methylsulfonyl)-4H-1,2,4-triazol-3-amine] | ≤ 10

More lines, now with the values ahead:

Row | IC50 [µM] | Structure (SMILES)
22 | ≤ 5 | NC(=O)c1ccc(S(=O)(=O)c2nnc(Nc3c4c(cc5c3CCC5)CCC4)[nH]2)cc1 [Example 327, 4-((5-((1,2,3,5,6,7-hexahydro-s-indacen-4-yl)amino)-4H-1,2,4-triazol-3-yl)sulfonyl)benzamide]
23 | ≤ 1 | O=S(=O)(c1ccn(CCO)n1)c1nnc(Nc2c3c(cc4c2CCC4)CCC3)[nH]1 [Example 334, 2-(3-((5-((1,2,3,5,6,7-hexahydro-s-indacen-4-yl)amino)-4H-1,2,4-triazol-3-yl)sulfonyl)-1H-pyrazol-1-yl)ethanol]
24 | ≤ 5 | O=S(=O)(c1cnn(CCO)c1)c1nnc(Nc2c3c(cc4c2CCC4)CCC3)[nH]1 [Example 335, 2-(4-((5-((1,2,3,5,6,7-hexahydro-s-indacen-4-yl)amino)-4H-1,2,4-triazol-3-yl)sulfonyl)-1H-pyrazol-1-yl)ethanol]
25 | ≤ 5 | CC(C)(O)Cn1cc(S(=O)(=O)c2nnc(Nc3c4c(cc5c3CCC5)CCC4)[nH]2)cn1 [Example 336, 1-(4-((5-((1,2,3,5,6,7-hexahydro-s-indacen-4-yl)amino)-4H-1,2,4-triazol-3-yl)sulfonyl)-1H-pyrazol-1-yl)-2-methylpropan-2-ol]
26 | ≤ 5 | CC(C)n1cc(S(=O)(=O)c2nnc(Nc3c4c(cc5c3CCC5)CCC4)[nH]2)cn1 [Example 338, N-(1,2,3,5,6,7-hexahydro-s-indacen-4-yl)-5-((1-isopropyl-1H-pyrazol-4-yl)sulfonyl)-4H-1,2,4-triazol-3-amine]
27 | ≤ 5 | CN(C)C(=O)Cn1cc(S(=O)(=O)c2nnc(Nc3c4c(cc5c3CCC5)CCC4)[nH]2)cn1 [Example 348, 2-(4-((5-((1,2,3,5,6,7-hexahydro-s-indacen-4-yl)amino)-4H-1,2,4-triazol-3-yl)sulfonyl)-1H-pyrazol-1-yl)-N,N-dimethylacetamide]
28 | ≤ 1 | CN(C)CCn1cc(S(=O)(=O)c2nnc(Nc3c4c(cc5c3CCC5)CCC4)[nH]2)cn1 [Example 350, 5-((1-(2-(dimethylamino)ethyl)-1H-pyrazol-4-yl)sulfonyl)-N-(1,2,3,5,6,7-hexahydro-s-indacen-4-yl)-4H-1,2,4-triazol-3-amine]
29 | ≤ 5 | Cn1cc(C#N)c(S(=O)(=O)c2nnc(Nc3c4c(cc5c3CCC5)CCC4)[nH]2)n1 [Example 351, 3-((5-((1,2,3,5,6,7-hexahydro-s-indacen-4-yl)amino)-4H-1,2,4-triazol-3-yl)sulfonyl)-1-methyl-1H-pyrazole-4-carbonitrile]
30 | ≤ 5 | CC(O)Cn1cc(S(=O)(=O)c2nnc(Nc3c4c(cc5c3CCC5)CCC4)[nH]2)cn1 (stereo not shown) [Example 353, 1-(4-((5-((1,2,3,5,6,7-hexahydro-s-indacen-4-yl)amino)-4H-1,2,4-triazol-3-yl)sulfonyl)-1H-pyrazol-1-yl)propan-2-ol]
31 | ≤ 5 | Cn1ncc(S(=O)(=O)c2nnc(Nc3c4c(cc5c3CCC5)CCC4)[nH]2)c1C#N [Example 355, 4-((5-((1,2,3,5,6,7-hexahydro-s-indacen-4-yl)amino)-4H-1,2,4-triazol-3-yl)sulfonyl)-1-methyl-1H-pyrazole-5-carbonitrile]
